Measurements taken from ChEMBL document CHEMBL2380284, “X-ray crystal structures of the Escherichia coli RNA polymerase in complex with benzoxazinorifamycins” (J Med Chem, 2013).

Assays:
[1] = Inhibition of rifamycin-resistant Mycobacterium tuberculosis RNA polymerase D435V mutant after 10 mins by rolling circle transcription assay in presence of DNA nanocircle template NC45
[2] = Inhibition of rifamycin-resistant Mycobacterium tuberculosis RNA polymerase H445Y mutant after 10 mins by rolling circle transcription assay in presence of DNA nanocircle template NC45
[3] = Inhibition of rifamycin-resistant Mycobacterium tuberculosis RNA polymerase S450L mutant after 10 mins by rolling circle transcription assay in presence of DNA nanocircle template NC45

SMILES: CO[C@H]1/C=C/O[C@@]2(C)Oc3c(C)c(O)c4c(O)c(c(/C=N/N5CCN(C)CC5)c(O)c4c3C2=O)NC(=O)/C(C)=C\C=C\[C@H](C)[C@H](O)[C@@H](C)[C@@H](O)[C@@H](C)[C@H](OC(C)=O)[C@@H]1C [RIFAMPIN]
- IC50 [1]: 465 µM
- IC50 [2]: 610 µM
- IC50 [3]: 109 µM
